Measured values: ChEMBL document CHEMBL1201862, “PubChem BioAssay data set” (2004)
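Cultured in 96-well plates, cells were exposed to test compound for 48 hours across five concentrations. GI50 is the concentration that inhibits growth by half.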 The source made the active and inactive calls. No stated cut-off is given here; in the data, active = GI50 up to about 1.1 µM and inactive = higher.

What was measured:
Experiment in all cases: NCI tumour cell line growth inhibition, 48 h
[1] = tested on: CAKI-1
[2] = tested on: CCRF-CEM
[3] = tested on: COLO 205
[4] = tested on: K562
[5] = tested on: KM12
[6] = tested on: M14
[7] = tested on: Malme-3M
[8] = tested on: OVCAR-4
[9] = tested on: OVCAR-8
[10] = tested on: SK-MEL-28
[11] = tested on: SK-MEL-5
[12] = tested on: SK-OV-3
[13] = tested on: SW-620
[14] = tested on: TK-10
[15] = tested on: U-251
[16] = tested on: UACC-257
[17] = tested on: UACC-62
[18] = tested on: UO-31

Measured: GI50

Cc1cc(C)c(S(=O)(=O)ONC(=O)OC(C)(C)C)c(C)c1
inactive: [1] > 100 µM | [2] > 100 µM | [3] > 100 µM | [4] > 100 µM | [5] > 100 µM | [6] > 100 µM | [7] > 100 µM | [8] > 100 µM | [9] > 100 µM | [10] > 100 µM | [11] > 100 µM | [12] > 100 µM | [13] > 100 µM | [14] > 100 µM | [15] > 100 µM | [16] > 100 µM | [17] > 100 µM | [18] > 100 µM

Cc1ccc(NC(=O)/C(=N\NC(N)=S)C(C#N)c2ccccc2C)cc1C (centres undefined)
inactive: [1] > 100 µM | [2] > 100 µM | [3] > 100 µM | [4] > 100 µM | [5] > 100 µM | [6] > 100 µM | [7] > 100 µM | [8] > 100 µM | [9] > 100 µM | [10] > 100 µM | [11] > 100 µM | [12] > 100 µM | [13] > 100 µM | [14] > 100 µM | [15] > 100 µM | [16] > 100 µM | [17] > 100 µM | [18] > 100 µM

Cc1nc2c(nc1C)C(=O)c1cc(O)ccc1C2=O
inactive: [1] > 100 µM | [2] 48.9 µM | [3] 23.1 µM | [4] > 70.3 µM | [5] > 100 µM | [6] > 77.6 µM | [7] 20.5 µM | [8] > 85.5 µM | [9] 53.2 µM | [10] 98.4 µM | [11] 15.6 µM | [12] > 100 µM | [13] 61.4 µM | [14] > 100 µM | [15] > 100 µM | [16] > 54.6 µM | [17] 22.3 µM | [18] > 100 µM

CC1CC(=O)c2c(ccc3c2C(=O)c2cccc(O)c2C3=O)C1 (centres undefined)
inactive: [2] 1.95 µM | [3] 5.75 µM | [4] 2.77 µM | [5] 12.7 µM | [6] 1.97 µM | [7] 6.93 µM | [8] 12.4 µM | [9] 2.56 µM | [10] 13.1 µM | [11] 2.31 µM | [12] 19.3 µM | [13] 4.25 µM | [14] > 10 µM | [15] 11.4 µM | [16] 5.89 µM | [17] 8.53 µM | [18] 11.5 µM

O=C(Oc1ccc2c(-c3ccccc3)c(C(=O)Nc3ccc(Cl)cc3)c(=O)oc2c1)c1ccccc1
inactive: [2] > 100 µM | [3] > 100 µM | [4] > 100 µM | [5] > 100 µM | [6] > 100 µM | [7] > 100 µM | [9] > 100 µM | [10] > 100 µM | [11] > 100 µM | [12] > 100 µM | [13] > 100 µM | [14] > 100 µM | [15] > 100 µM | [16] > 100 µM | [17] > 100 µM | [18] > 100 µM

COC(=O)C1(C(=O)OC)CC(=O)c2cc3c(cc2-c2c(cc(OC)c(OC)c2OC)C1)OCO3
inactive: [1] > 211 µM | [2] 173 µM | [3] 183 µM | [4] 139 µM | [5] 71.6 µM | [7] > 211 µM | [9] 139 µM | [10] > 211 µM | [11] 123 µM | [12] > 211 µM | [13] > 211 µM | [14] > 211 µM | [15] > 211 µM | [16] 139 µM | [17] 109 µM

O=C(Nc1ccc(F)cc1)C(=O)C(C1OC(=O)c2ccccc21)[N+](=O)[O-] (centres undefined)
inactive: [1] > 100 µM | [2] > 100 µM | [3] > 100 µM | [4] > 100 µM | [5] > 100 µM | [6] > 100 µM | [7] > 100 µM | [8] > 100 µM | [9] > 100 µM | [10] > 100 µM | [11] > 100 µM | [12] > 100 µM | [13] > 100 µM | [14] > 100 µM | [15] > 100 µM | [16] > 100 µM | [17] > 100 µM | [18] > 100 µM

C[Si](C)(C)/C=C/CCC(C=O)(CCCl)c1ccccc1 (centres undefined)
inactive: [2] 29.6 µM | [3] 29.2 µM | [4] 25 µM | [5] 26.7 µM | [6] 28.3 µM | [7] 17.6 µM | [9] 27.7 µM | [10] 32.9 µM | [11] 17.8 µM | [12] 56.9 µM | [13] 28.6 µM | [14] 56.1 µM | [15] 15.7 µM | [16] 26.2 µM | [17] 21.7 µM | [18] 44.2 µM

COC1=CC(=O)[C@]2(C)[C@H](C1=O)C(C)[C@H]2c1ccc(OC)cc1 (some centres undefined)
inactive: [1] > 100 µM | [2] > 100 µM | [3] > 100 µM | [4] > 100 µM | [5] > 100 µM | [6] > 100 µM | [7] > 100 µM | [8] > 100 µM | [9] > 100 µM | [10] > 100 µM | [11] > 100 µM | [12] > 100 µM | [13] > 100 µM | [14] > 100 µM | [15] > 100 µM | [16] 91.6 µM | [17] > 100 µM | [18] 82 µM

Cc1c(C#N)c(=O)[nH]c(=O)n1CCN1CCN(C(=O)NCCCCCCNC(=O)N2CCN(CCn3c(C)c(C#N)c(=O)[nH]c3=O)CC2)CC1
inactive: [1] > 100 µM | [2] > 100 µM | [3] > 100 µM | [4] > 100 µM | [6] > 100 µM | [8] > 100 µM | [9] > 100 µM | [10] > 100 µM | [11] > 100 µM | [12] > 100 µM | [13] > 100 µM | [14] > 100 µM | [15] > 100 µM | [16] > 100 µM | [17] > 100 µM

O=[N+]([O-])c1ccc2nc(/C(=N/Nc3ccccc3)C(O)c3ccco3)c(O)nc2c1 (centres undefined)
inactive: [1] 85.5 µM | [2] 27.2 µM | [3] > 100 µM | [4] > 100 µM | [5] > 100 µM | [6] > 100 µM | [7] > 100 µM | [8] > 100 µM | [9] > 100 µM | [11] 44.5 µM | [13] > 100 µM | [15] > 100 µM | [16] > 100 µM | [17] 45.7 µM | [18] 86.5 µM

COc1ccccc1NC(=O)C1=C(C)NC(C)=C(C(=O)Nc2ccccc2OC)C1c1ccc(C)cc1
inactive: [1] > 100 µM | [3] 12.6 µM | [4] 18.2 µM | [5] 43 µM | [6] 64.6 µM | [7] > 100 µM | [8] 43.4 µM | [9] 58.9 µM | [10] > 100 µM | [11] 16.9 µM | [12] > 100 µM | [13] > 100 µM | [14] 69.5 µM | [15] > 100 µM | [16] 51.5 µM | [17] 65.3 µM | [18] 43 µM

CCCC(O)c1ccc2[nH]c3c(C)cc([N+](=O)[O-])c(C)c3c2c1 (centres undefined)
inactive: [1] > 100 µM | [2] > 100 µM | [3] 93.1 µM | [4] 57.4 µM | [5] > 100 µM | [6] > 100 µM | [7] > 100 µM | [8] > 100 µM | [9] > 100 µM | [10] > 100 µM | [11] > 100 µM | [13] 99.1 µM | [14] 23 µM | [16] > 100 µM | [18] > 100 µM

O=C1C=CC2(CCC23C=CC(=O)O3)O1 (centres undefined)
inactive: [2] 86.5 µM | [3] > 100 µM | [4] > 100 µM | [5] > 100 µM | [6] > 100 µM | [7] > 100 µM | [8] > 100 µM | [9] > 100 µM | [10] > 100 µM | [12] > 100 µM | [13] 94.6 µM | [14] > 100 µM | [15] > 100 µM | [16] > 100 µM | [17] > 100 µM | [18] > 100 µM

O=C1C(Cl)C(c2cccc(O)c2)N1n1cnc2ccccc2c1=O (centres undefined)
inactive: [1] 76 µM | [3] > 100 µM | [4] 49.1 µM | [6] > 100 µM | [7] > 100 µM | [8] > 100 µM | [9] > 100 µM | [10] > 100 µM | [11] > 100 µM | [12] > 100 µM | [13] > 100 µM | [14] > 100 µM | [15] > 100 µM | [16] > 100 µM | [17] > 100 µM | [18] 15 µM

N#Cc1cccc(C2C(=O)c3ccc(C(=O)c4ccc5c(c4)C(=O)N(c4ccc(Oc6ccc(N7C(=O)c8ccc(C(=O)c9ccc%10c(c9)C(=O)N(c9cccc(C#N)c9)C%10=O)cc8C7=O)cc6)cc4)C5=O)cc3C2=O)c1 (centres undefined)
inactive: [2] > 100 µM | [3] > 100 µM | [4] > 100 µM | [5] > 100 µM | [6] > 100 µM | [7] > 100 µM | [8] > 100 µM | [9] > 100 µM | [10] > 100 µM | [11] > 100 µM | [13] > 100 µM | [14] 40.2 µM | [15] > 100 µM | [16] > 100 µM | [17] > 100 µM | [18] > 100 µM
